Experimental data as given in US20230201290A1, “TGF-BETA INHIBITION, AGENTS AND COMPOSITION THEREFOR” (GMP BIOTECHNOLOGY LIMITED, priority 2020, published 2023).

Columns and labels:
[1] = test system: malignant melanoma; assay: Phase I/II study P001: patients with malignant melanoma; type: in vivo, human
[2] = Toxicology in monkeys (LOAEL); type: in vivo
[3] = test system: human PBMCs; assay: Viability and proliferation of human PBMCs; type: cell-based
Protocol: Cell viability was assessed following treatment of human PBMCs with trabedersen in vitro using the Trypan blue exclusion test. Freshly isolated, IL-2 activated PBMCs from healthy donors and HGG patients were incubated either without trabedersen or with 1, 5, 10 or 80 μM trabedersen for 2, 3, 6, 7, 14, and 21 day. […] There was no difference in cell viability between untreated and trabedersen treated cells.

Substance: cggcatgtct attttgta (antisense CGGCATGTCTATTTTGTA; chemistry not given here) [OT-101, synthetic antisense oligodeoxynucleotide against TGF-beta2]
- Survival ([1]; 4-days-on, 10-days-off schedule): 11.4 months
- mOS ([1]; 4-days-on, 10-days-off, with subsequent therapies): 13.5 months
- mOS ([1]; 4-days-on, 10-days-off, without subsequent therapies): 6.0 months
- Survival ([1]; 7-days-on, 7-days-off schedule): 7.8 months
- mOS ([1]; 14 additional patients, 140 mg/m^2/day, 4-days-on, 10-days-off): 10.4 months
- mOS ([1]; all melanoma patients independent of dose and schedule): 11.4 months
- mOS ([1]; last cohort 140 mg/m2/day, followed by subsequent therapy): 13.5 months
- mOS ([1]; last cohort 140 mg/m2/day, no subsequent therapy): 6.0 months
- mOS ([1]; melanoma patients of dose escalation): 13.8 months
- mOS ([1]; two patients, 2nd-line, 140 mg/m^2/day 4-on/10-off): 9.5 months
- Lowest-Observed-Adverse-Effect Level (LOAEL), equivalent in human adults [2]: 48 mg/m^2/day
- PBMC proliferation, of untreated control cells ([3]; 80 μM, 7 days): 67%
- effects on the viability of PBMCs ([3]; 1, 5, 10 or 80 μM, up to 21 day, Trypan blue): No relevant effects
- Proliferation of PBMCs ([3]; 5, 10 or 50μM): within the range of variation
